Data as given in the NIST ThermoML archive (doi:10.1016/j.jct.2012.08.019).
Numbers after ± are expanded uncertainties.

Columns and labels:
[1] = xn = mol fraction of the nth substance listed; details: Liquid; for mass density: Vibrating tube method; for viscosity: Moving piston method
[2] = 323.2 K, Liquid, Vibrating tube method

CCCCCCCCCCCCCC [tetradecane] + CCCCCCCCCC
mass density [kg/m3], [1], 323.2 K
Details	x2 = 0	x2 = 0.25	x2 = 0.5	x2 = 0.75
100 kPa	741.3 ± 0.4	734.3 ± 0.4	726.5 ± 0.4	717.2 ± 0.4
1000 kPa	742.1 ± 0.4	735.1 ± 0.4	727.4 ± 0.4	718.1 ± 0.4
2000 kPa	742.9 ± 0.4	735.9 ± 0.4	728.2 ± 0.4	719 ± 0.4
3000 kPa	743.7 ± 0.4	736.7 ± 0.4	729.1 ± 0.4	719.8 ± 0.4
4000 kPa	744.4 ± 0.4	737.5 ± 0.4	729.8 ± 0.4	720.7 ± 0.4
5000 kPa	745.2 ± 0.4	738.3 ± 0.4	730.7 ± 0.4	721.6 ± 0.4
6000 kPa	746 ± 0.4	739.1 ± 0.4	731.5 ± 0.4	722.5 ± 0.4
7000 kPa	746.7 ± 0.4	739.9 ± 0.4	732.4 ± 0.4	723.2 ± 0.4
8000 kPa	747.5 ± 0.4	740.7 ± 0.4	733.2 ± 0.4	724 ± 0.4
9000 kPa	748.2 ± 0.4	741.5 ± 0.4	734 ± 0.4	724.9 ± 0.4
10000 kPa	749 ± 0.4	742.2 ± 0.4	734.8 ± 0.4	725.8 ± 0.4

CCCCCCCCCC [decane] + CCCCCCCCCCCCCC
[1], 323.2 K, x1 = 1
Details	mass density [kg/m3]
100 kPa	707 ± 0.3
1000 kPa	707.9 ± 0.4
2000 kPa	708.8 ± 0.4
3000 kPa	709.7 ± 0.4
4000 kPa	710.6 ± 0.4
5000 kPa	711.5 ± 0.4
6000 kPa	712.4 ± 0.4
7000 kPa	713.3 ± 0.4
8000 kPa	714.1 ± 0.4
9000 kPa	715 ± 0.4
10000 kPa	715.9 ± 0.4

CCCCCCCCCCCCCC [tetradecane] + O=C=O
[1]
Details	mass density, 323.3 K [kg/m3]	viscosity, 323.2 K [mPa·s]
980 kPa, x2 = 0.097	744 ± 2	1.18 ± 0.1
2060 kPa, x2 = 0.196	748 ± 2	1.08 ± 0.1
3000 kPa, x2 = 0.279	751 ± 2	0.96 ± 0.1
4030 kPa, x2 = 0.358	755 ± 2	0.79 ± 0.1
4960 kPa, x2 = 0.429	758 ± 2	0.67 ± 0.1
6000 kPa, x2 = 0.496	762 ± 2	0.56 ± 0.1

CCCCCCCCCCCCCC [tetradecane]
[2]
Details	mass density [kg/m3]
100 kPa	741.3 ± 0.4
1000 kPa	742.1 ± 0.4
2000 kPa	742.9 ± 0.4
3000 kPa	743.7 ± 0.4
4000 kPa	744.4 ± 0.4
5000 kPa	745.2 ± 0.4
6000 kPa	746 ± 0.4
7000 kPa	746.7 ± 0.4
8000 kPa	747.5 ± 0.4
9000 kPa	748.2 ± 0.4
10000 kPa	749 ± 0.4

CCCCCCCCCC [decane]
[2]
Details	mass density [kg/m3]
100 kPa	707 ± 0.3
1000 kPa	707.9 ± 0.4
2000 kPa	708.8 ± 0.4
3000 kPa	709.7 ± 0.4
4000 kPa	710.6 ± 0.4
5000 kPa	711.5 ± 0.4
6000 kPa	712.4 ± 0.4
7000 kPa	713.3 ± 0.4
8000 kPa	714.1 ± 0.4
9000 kPa	715 ± 0.4
10000 kPa	715.9 ± 0.4

CCCCCCCCCC [decane] + O=C=O
[1]
Details	mass density, 323.3 K [kg/m3]	viscosity, 323.2 K [mPa·s]
1020 kPa, x2 = 0.094	711 ± 2	0.56 ± 0.1
2080 kPa, x2 = 0.19	716 ± 2	0.46 ± 0.1
2970 kPa, x2 = 0.263	720 ± 2	0.42 ± 0.1
3940 kPa, x2 = 0.353	724 ± 2	0.38 ± 0.1
4910 kPa, x2 = 0.429	729 ± 2	0.33 ± 0.1
5960 kPa, x2 = 0.513	735 ± 2	0.28 ± 0.1
